How the values were obtained:
mouse P2RY14 = biological target: T1, mouse P2RY14 (Mus musculus, UniProt Q9ESG6); test: CellKey System live cell functional assay, mouse P2RY14; assay type: cell-based; settings: HEK cells expressing mouse P2RY14 and Gqi5
T1 construct: expressed in transfected cells
T1 sequence (Q9ESG6 1-338): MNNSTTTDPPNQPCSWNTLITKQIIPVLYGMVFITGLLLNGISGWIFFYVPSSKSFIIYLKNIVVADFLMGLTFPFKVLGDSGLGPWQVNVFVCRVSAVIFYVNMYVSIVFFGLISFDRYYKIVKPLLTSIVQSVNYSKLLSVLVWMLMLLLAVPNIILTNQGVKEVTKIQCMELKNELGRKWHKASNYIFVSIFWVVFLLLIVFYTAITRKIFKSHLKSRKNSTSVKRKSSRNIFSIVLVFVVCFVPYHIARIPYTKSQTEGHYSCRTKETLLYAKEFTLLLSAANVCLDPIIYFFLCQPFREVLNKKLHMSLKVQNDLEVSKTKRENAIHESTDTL
Method: The Cellkey System™ (MDS Sciex), a novel, live cell, label-free, real-time technology, was used to examine P2RY14 activation following agonist stimulation. The CellKey System™ is based on cellular dielectric spectroscopy (CDS) and monitors changes in impedance of the applied electrical current through the cell monolayer upon receptor activation.
On the following day, growth medium was removed from the cell monolayer and replaced with 135 μl of HBSS pH 7.4 containing 20 mM Hepes for a 30 minutes pre-incubation period at room temperature. Baseline measurements were made for 5 minutes at 28° C. prior to ligand addition. For agonist assays, 15 μl of 10× agonist diluted in HBSS pH 7.4 containing 20 mM HEPES was added to the cell monolayer simultaneously using the 96 multichannel head from the CellKey™ System. Cellular response was monitored for 10 minutes to assess cellular response after ligand addition.

P2RY14 = biological target: T2, P2RY14 (Homo sapiens, UniProt Q15391); design: host or cells: yeast and HEK-293 cells (Chambers et al., J. Biol. Chem. 275: 10767-10771 (2000)); settings: yeast and mammalian cells, Chambers et al. 2000; cited from earlier work
T2 sequence (Q15391 1-338): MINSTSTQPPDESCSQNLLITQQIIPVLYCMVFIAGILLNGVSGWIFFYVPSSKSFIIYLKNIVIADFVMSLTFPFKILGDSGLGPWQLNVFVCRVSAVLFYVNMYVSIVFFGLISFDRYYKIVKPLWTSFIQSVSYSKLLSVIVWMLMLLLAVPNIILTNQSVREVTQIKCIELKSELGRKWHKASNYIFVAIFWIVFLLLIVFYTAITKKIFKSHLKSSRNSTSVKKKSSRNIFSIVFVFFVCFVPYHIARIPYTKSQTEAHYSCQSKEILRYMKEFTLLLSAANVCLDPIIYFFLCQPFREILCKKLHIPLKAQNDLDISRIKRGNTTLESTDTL

simian P2RY14 = test: Membrane filtration binding assay, simian P2RY14; design: species or system chimpanzee; settings: simian P2RY14 membranes
Method: Membrane preparations were made by N2 cavitation using a Parr unit. […] Cell were Dounce homogenized (size B, 10 strokes) and then added to the cavitation unit. Pressure was adjusted to 800 psi and cells were left under pressure for 30 minutes. Broken cells were released drop by drop and spun at 1000 g for 10 minutes. Supernatent was spun at 160,000 g (rotor type 60 Ti, 40000 rpm for 30 min). Pellet was resuspended in 10 mM HEPES/KOH pH 7.4, 1 mM EDTA in ⅕ the original volume, dounce homogenized (size A, 10 strokes), aliquoted, and frozen at −80° C.
Binding assays were performed in 10 mM Hepes pH 7.4 (KOH), 5 mM MnCl2, 5 mM MgCl2 buffer. Membranes (10 μg/well for human P2RY14 and 30 μg/well for simian P2RY14) were incubated with 10 nM [5.6-^3H] Uridine 5′-triphosphate (UTP), ammonium salt from Amersham Biosciences (# TRK412) in presence of compounds diluted in DMSO (2% final in assay), in a total volume of 100 μl. 50 minutes (human P2RY14) or 60 minutes (simian) P2RY14) incubations were performed at room temperature with shaking. […] To examine the stability of [^3H]-UTP in the membrane filtration binding assay, 100 ul aliquots of the reaction mixture were extracted at 2, 10, 20, 40, 60 and 90 minutes with 100 uL of cold 80 mM EDTA solution (pH 8) and 200 uL of cold Acetonitrile. After mixing, proteins were precipitated by centrifugation at 13000 rpm for 10 minutes at 4° C. […] After 0.5 min at 10:90 50 mM KH2PO4/750 mM KH2PO4, a gradient was applied in order to increase to 100% 750 mM KH2PO4 at 5 min, after which this composition was maintained for an additional 3 min. Samples were kept at 4° C. prior to HPLC analysis

O=c1ccn([C@@H]2O[C@H](COP(=O)(O)O)[C@@H](O)[C@H]2O)c(=O)[nH]1 [UMP]
P2RY14 signaling (impedance, CellKey) (mouse P2RY14): mediated signaling
activation of P2RY14 (P2RY14): unable to activate
competition for [3H]-UTP/[3H]-UDP binding (simian P2RY14): able to successfully compete
Ki (simian P2RY14; 10 nM radioligand, read-out: Ki, competition for [3H]-UTP/[3H]-UDP binding): ~1000 nM

From US20090148850A1, “Methods for identifying modulators of P2RY14” (priority 2007, published 2009)
